Source: article PMC4204381 (Computational and Structural Biotechnology Journal, 2014)
Like-named read-outs stand apart in the source and are kept apart here.

Tests used:
Male Sprague–Dawley rats [1] = format: in vivo, rat; conditions: p < 0.05; for Oleoylcarnitine blood level vs control: Fig. 4A; for Palmitoylcarnitine blood level vs control: Fig. 4B; for LysoPC(20:1) blood level vs control: Fig. 4C
patients = conditions: cited from earlier work
Male Sprague–Dawley rats [2] = test: Histopathology and tissue observations in rats after a single oral dose; conditions: for hepatic vacuolization / hepatic necrosis: low and high doses, 6 or 24 h
Male Sprague–Dawley rats [3] = test: Clinical chemistry; conditions: for clinical chemistry changes (ALT, AST, ALP): low dose, 6 or 24 h

| Oleoylcarnitine blood level vs control (Male Sprague–Dawley rats [1]; 6 h) | Palmitoylcarnitine blood level vs control (Male Sprague–Dawley rats [1]; 6 h) | LysoPC(20:1) blood level vs control (Male Sprague–Dawley rats [1]; 6 h) | Palmitoylcarnitine blood level vs control (Male Sprague–Dawley rats [1]; 24 h) | LysoPC(20:1) blood level vs control (Male Sprague–Dawley rats [1]; 24 h) | Structure (SMILES) | hepatic vacuolization / hepatic necrosis (Male Sprague–Dawley rats [2]) | clinical chemistry changes (ALT, AST, ALP) (Male Sprague–Dawley rats [3]) | also measured |
| --- | --- | --- | --- | --- | --- | --- | --- | --- |
| significantly increased | significantly increased | significantly decreased | appeared to be increased | appeared to be decreased | CC(=O)Nc1ccc(O)cc1 [APAP, acetaminophen] | – | – | Oleoylcarnitine blood level vs control (Male Sprague–Dawley rats [1]; 24 h): significantly increased |
| – | significantly increased | – | – | significantly decreased | O=C1CN(/N=C/c2ccc(-c3ccc([N+](=O)[O-])cc3)o2)C(O)=N1 [DAN, dantrolene] | neither hepatic vacuolization nor hepatic necrosis | – | incidence of hepatotoxicity (patients; patients): 0.35% |
| – | – | significantly decreased | appeared to be increased | significantly decreased | NC(=O)OCC(COC(N)=O)c1ccccc1 [FEL, felbamate] | neither hepatic vacuolization nor hepatic necrosis | did not have any clinical chemistry changes | – |
| – | significantly increased | – | – | appeared to be decreased | Cc1cnc(NC(=O)C2=C(O)c3ccccc3S(=O)(=O)N2C)s1 [MEL, meloxicam] | neither hepatic vacuolization nor hepatic necrosis | – | inflammation in the capsule of kidney (incidence) (Male Sprague–Dawley rats [2]; rats treated with MEL for 24 h): 1 out of 5; inflammation in the capsule of liver (incidence) (Male Sprague–Dawley rats [2]; rats treated with MEL for 24 h): 2 out of 5; ALT increase of the ALT value of the control group (Male Sprague–Dawley rats [3]; 24 h, high dose group): < 2 fold |
| significantly increased | – | – | – | – | CN(C)C(=N)N=C(N)N [MET, metformin] | neither hepatic vacuolization nor hepatic necrosis | did not have any clinical chemistry changes | Taurocholic acid blood level vs control (Male Sprague–Dawley rats [1]; 6 h, Fig. 4D): significantly decreased; cases of liver injury reported to be associated with MET (patients; by 2012, concomitant intake of other potential hepatotoxicants): < 10 cases; ALT increase of ALT value in control group (Male Sprague–Dawley rats [3]; 6 h, high dose): < 3 fold |
| – | – | – | – | – | Nc1c2c(nc3ccccc13)CCCC2 [tacrine] | – | – | ALT increase with no liver cell injury (patients; human, in vivo): > 20 fold of the upper limit of normal |
